According to PubChem BioAssay AID2060512 (Molecular Pharmacology Branch, DTP, NCI, 2025):

Tested on: 186277-243-T-J2-PDC complex spheroid viability
Assay: Anticancer human tumor 186277-243-T-J2-PDC patient-derived colon adenocarcinoma cell line growth inhibition [GQUAD]
Details: for IC50: curve of first compound; for viability, T/C: stronger effect = lower value
Method in brief: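 Viability of tumor cells grown as complex spheroids with endothelial and stromal cells, exposed to drug combinations. Top concentration at or near clinical Cmax (else 10 microM), diluted in half-log increments.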

[1] = second compound 0.0316 µM, first compound 0.0316 µM
[2] = second compound 0.0316 µM, first compound 0.316 µM
[3] = second compound 0.1 µM, first compound 0.0316 µM
[4] = second compound 0.1 µM, first compound 0.316 µM
[5] = second compound 0.316 µM, first compound 0.0316 µM
[6] = second compound 0.316 µM, first compound 0.316 µM
[7] = second compound 1 µM, first compound 0.0316 µM
[8] = second compound 1 µM, first compound 0.316 µM
[9] = second compound 3.16 µM, first compound 0.0316 µM
[10] = second compound 3.16 µM, first compound 0.316 µM
[11] = second compound 10 µM, first compound 0.0316 µM
[12] = second compound 10 µM, first compound 0.316 µM
[13] = second compound 0.0316 µM, first compound 0.1 µM
[14] = second compound 0.0316 µM, first compound 1 µM
[15] = second compound 0.0316 µM, first compound 3.16 µM
[16] = second compound 0.0316 µM, first compound 10 µM
[17] = second compound 0.1 µM, first compound 0.1 µM
[18] = second compound 0.1 µM, first compound 1 µM
[19] = second compound 0.1 µM, first compound 3.16 µM
[20] = second compound 0.1 µM, first compound 10 µM
[21] = second compound 0.316 µM, first compound 0.1 µM
[22] = second compound 0.316 µM, first compound 1 µM
[23] = second compound 0.316 µM, first compound 3.16 µM
[24] = second compound 0.316 µM, first compound 10 µM
[25] = second compound 1 µM, first compound 0.1 µM
[26] = second compound 1 µM, first compound 1 µM
[27] = second compound 1 µM, first compound 3.16 µM
[28] = second compound 1 µM, first compound 10 µM
[29] = second compound 3.16 µM, first compound 0.1 µM
[30] = second compound 3.16 µM, first compound 1 µM
[31] = second compound 3.16 µM, first compound 3.16 µM
[32] = second compound 3.16 µM, first compound 10 µM
[33] = second compound 10 µM, first compound 0.1 µM
[34] = second compound 10 µM, first compound 1 µM
[35] = second compound 10 µM, first compound 3.16 µM
[36] = second compound 10 µM, first compound 10 µM
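Throughout, for viability, T/C: 100% = DMSO vehicle control viability.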

Molecule `Cc1[nH]c2ccccc2c1CCNCc1ccc(/C=C/C(=O)NO)cc1` + Cc1[nH]c2ccc(F)cc2c1-c1nc2c3cccnc3c3ncccc3c2[nH]1 has an IC50 (second compound 0.0316 µM) of 41.3 nM, an IC50 (second compound 0.1 µM) of 44.2 nM and an IC50 (second compound 0.316 µM) of 47.1 nM. For the same molecule, the IC50 (second compound 1 µM) was 41.8 nM, the IC50 (second compound 3.16 µM) was 40.4 nM and the IC50 (second compound 10 µM) was 47.5 nM. The viability, T/C (second compound 0.0316 µM, first compound 0.000999 µM) was 110%, the viability, T/C (second compound 0.0316 µM, first compound 0.00316 µM) was 108% and the viability, T/C (second compound 0.0316 µM, first compound 0.00999 µM) was 104%. It also gave a viability, T/C [1] of 62.1%, a viability, T/C (second compound 0.0316 µM, first compound 0.0999 µM) of 9.83% and a viability, T/C [2] of 0.44%. For the same molecule, the viability, T/C (second compound 0.1 µM, first compound 0.000999 µM) was 115%, the viability, T/C (second compound 0.1 µM, first compound 0.00316 µM) was 105% and the viability, T/C (second compound 0.1 µM, first compound 0.00999 µM) was 90.7%. It also gave a viability, T/C [3] of 69.8%, a viability, T/C (second compound 0.1 µM, first compound 0.0999 µM) of 10.4% and a viability, T/C [4] of 0.56%. The viability, T/C (second compound 0.316 µM, first compound 0.000999 µM) was 93.3%, the viability, T/C (second compound 0.316 µM, first compound 0.00316 µM) was 101% and the viability, T/C (second compound 0.316 µM, first compound 0.00999 µM) was 97%. It also gave a viability, T/C [5] of 71.2%, a viability, T/C (second compound 0.316 µM, first compound 0.0999 µM) of 9.88% and a viability, T/C [6] of 1.7%. For the same molecule, the viability, T/C (second compound 1 µM, first compound 0.000999 µM) was 90.5%, the viability, T/C (second compound 1 µM, first compound 0.00316 µM) was 107% and the viability, T/C (second compound 1 µM, first compound 0.00999 µM) was 104%. It also gave a viability, T/C [7] of 62.8%, a viability, T/C (second compound 1 µM, first compound 0.0999 µM) of 9.69% and a viability, T/C [8] of 0.96%. The viability, T/C (second compound 3.16 µM, first compound 0.000999 µM) was 101%, the viability, T/C (second compound 3.16 µM, first compound 0.00316 µM) was 111% and the viability, T/C (second compound 3.16 µM, first compound 0.00999 µM) was 100%. It also gave a viability, T/C [9] of 61.1%, a viability, T/C (second compound 3.16 µM, first compound 0.0999 µM) of 9% and a viability, T/C [10] of 0.47%. It also gave a viability, T/C (second compound 10 µM, first compound 0.000999 µM) of 95%, a viability, T/C (second compound 10 µM, first compound 0.00316 µM) of 98.5% and a viability, T/C (second compound 10 µM, first compound 0.00999 µM) of 99.9%. It also gave a viability, T/C [11] of 71.1%, a viability, T/C (second compound 10 µM, first compound 0.0999 µM) of 11.2% and a viability, T/C [12] of 1.07%.

`Nc1ccn(C2OC(CO)C(O)C2(F)F)c(=O)n1` (stereo unspecified) + Cc1[nH]c2ccc(F)cc2c1-c1nc2c3cccnc3c3ncccc3c2[nH]1 was tested, and the IC50 (second compound 0.0316 µM) was < 31.6 nM, the IC50 (second compound 0.1 µM) was < 31.6 nM and the IC50 (second compound 0.316 µM) was < 31.6 nM. The IC50 (second compound 1 µM) was < 31.6 nM, the IC50 (second compound 3.16 µM) was < 31.6 nM and the IC50 (second compound 10 µM) was < 31.6 nM. It also gave a viability, T/C [1] of 21.6%, a viability, T/C [13] of 11.7% and a viability, T/C [2] of 11.9%. For the same molecule, the viability, T/C [14] was 10.3%, the viability, T/C [15] was 11.4% and the viability, T/C [16] was 11.4%. The viability, T/C [3] was 22.8%, the viability, T/C [17] was 11.5% and the viability, T/C [4] was 11.6%. For the same molecule, the viability, T/C [18] was 9.19%, the viability, T/C [19] was 12.4% and the viability, T/C [20] was 11.5%. For the same molecule, the viability, T/C [5] was 23.7%, the viability, T/C [21] was 10.1% and the viability, T/C [6] was 11.9%. It also gave a viability, T/C [22] of 10.4%, a viability, T/C [23] of 12.4% and a viability, T/C [24] of 11.6%. The viability, T/C [7] was 18.9%, the viability, T/C [25] was 10.6% and the viability, T/C [8] was 11.8%. The viability, T/C [26] was 10.4%, the viability, T/C [27] was 11.7% and the viability, T/C [28] was 12.1%. It also gave a viability, T/C [9] of 23.4%, a viability, T/C [29] of 15.5% and a viability, T/C [10] of 11.9%. The viability, T/C [30] was 11.3%, the viability, T/C [31] was 9.87% and the viability, T/C [32] was 12.2%. The viability, T/C [11] was 20.2%, the viability, T/C [33] was 8.63% and the viability, T/C [12] was 9.73%. It also gave a viability, T/C [34] of 9.38%, a viability, T/C [35] of 11.6% and a viability, T/C [36] of 12.2%.

In the case of `C=CC(=O)N1CCN(c2nc(=O)n(-c3c(C)ccnc3C(C)C)c3nc(-c4c(O)cccc4F)c(F)cc23)C(C)C1` (stereo unspecified) + Cc1cnc(CNC(=O)c2c(=O)c3ccc(N4CCCN(C)CC4)nc3n3c2sc2ccccc23)cn1, the IC50 (second compound 0.0316 µM) is reported as > 10000 nM, the IC50 (second compound 0.1 µM) is reported as > 10000 nM and the IC50 (second compound 0.316 µM) is reported as > 10000 nM. The IC50 (second compound 1 µM) was > 10000 nM, the IC50 (second compound 3.16 µM) was < 31.6 nM and the IC50 (second compound 10 µM) was > 10000 nM. For the same molecule, the viability, T/C [1] was 89.2%, the viability, T/C [13] was 106% and the viability, T/C [2] was 105%. For the same molecule, the viability, T/C [14] was 94.1%, the viability, T/C [15] was 109% and the viability, T/C [16] was 88.6%. For the same molecule, the viability, T/C [3] was 84.6%, the viability, T/C [17] was 91.3% and the viability, T/C [4] was 99%. For the same molecule, the viability, T/C [18] was 83.7%, the viability, T/C [19] was 96.1% and the viability, T/C [20] was 76.1%. The viability, T/C [5] was 81.5%, the viability, T/C [21] was 58.7% and the viability, T/C [6] was 75.7%. It also gave a viability, T/C [22] of 75.3%, a viability, T/C [23] of 75.8% and a viability, T/C [24] of 66.4%. For the same molecule, the viability, T/C [7] was 59.9%, the viability, T/C [25] was 62% and the viability, T/C [8] was 65.6%. It also gave a viability, T/C [26] of 66.7%, a viability, T/C [27] of 68.4% and a viability, T/C [28] of 66.1%. The viability, T/C [9] was 50.3%, the viability, T/C [29] was 47.4% and the viability, T/C [10] was 52.4%. The viability, T/C [30] was 53.7%, the viability, T/C [31] was 62.8% and the viability, T/C [32] was 46%. For the same molecule, the viability, T/C [11] was 53.2%, the viability, T/C [33] was 46.5% and the viability, T/C [12] was 49.3%. The viability, T/C [34] was 56.2%, the viability, T/C [35] was 61.3% and the viability, T/C [36] was 47.6%.
